Results on two molecules are retold here after patent US20260297101A1 (AbbVie Inc., priority 2015, published 2026).

Molecules are shown by their SMILES.

Series [1] in a line: Multiple-dose escalation pharmacokinetics in healthy subjects (Study 2-Part 1). As to conditions: 24 mg BID IR, Day 14, from Cmax to Ctrough ratio, harmonic mean ± pseudo-SD, 20160 min.
Protocol: Both evaluations followed randomized, double-blind, placebo-controlled designs.
Study drug was administered approximately 30 minutes after a standard breakfast (in the morning) or a snack (in the evening). […] Subjects were confined to the study site and supervised for approximately 18 days.
Samples quantified below the LLOQ were reported as zero.
Renal clearance (CLr) was calculated as Au, 0-12/AUC0-12 at steady state.
Statistical analyses were performed using SAS software (Version 9.3; SAS institute Inc., Cary, NC, USA).
The conditions of series [2]: QD ER tablet.
Protocol: (§1) Part 1 was a multiple-dose, open-label, multiple-cohort study. Two sequential multiple-ascending dose levels (Low Dose and High Dose levels) were evaluated in the 12 to <18 years age group (Group 1), and one dose level (Low Dose) was evaluated in the two younger age groups (Group 2: 6 to <12 years, and Group 3: 2 to <6 years). Low Dose and High Dose cohorts in age group 1 enrolled 9 subjects each.
(§2) The study enrolled at least 10 subjects below 30 kg. Recruitment of subjects was conducted through a staggered approach based on age. […] Part 3 was an additional safety cohort. […] Part 3 was open to age groups in which Part 1 enrollment was completed. […] Doses were adjusted during the study for any of the body weight categories after review of results from the subjects who completed Study Part 1.
(§3) In Part 1, the dose was administered according to three body weight categories. Subjects were categorized based on age group, and the dose administered for seven consecutive days will be based on three different body weight categories per dose level shown in Table 29.
(§4) Patients (N=51) diagnosed with pcJIA were enrolled into one of four groups in an open-label, multiple-dose study (Group 1, 12 to <18 years, low dose; Group 2, 12 to <18 years, high dose; Group 3, 6 to <12 years, low dose; Group 4, 2 to <6 years, low dose). […]
The next series can be described thus: clinical. Conditions: human, in vivo, po, functional half-life (t1/2), BID IR oral solution.
Series [3] in a line: Solubility of upadacitinib in different aqueous media at 37 °C. As to conditions: low pH.

Protocol for clinical: as §1, §2, §3, §4

Turning to `CC[C@@H]1CN(C(=O)NCC(F)(F)F)C[C@@H]1c1cnc2cnc3[nH]ccc3n12` [Compound 1, (3S,4R)-3-ethyl-4-(3H-imidazo[1,2-a]pyrrolo[2,3-e]pyrazin-8-yl)-N-(2,2,2-trifluoroethyl) pyrrolidine-1-carboxamide], the “t1/2F (functional half-life)” value in series [1] was 3.3 ± 0.4 h.

With `CC[C@@H]1CN(C(=O)NCC(F)(F)F)C[C@@H]1c1cnc2cnc3[nH]ccc3n12` [upadacitinib, (3S,4R)-3-ETHYL-4-(3H-IMIDAZO[1,2-a]PYRROLO[2,3-e]-PYRAZIN-8-YL)-N-(2,2,2-TRIFLUOROETHYL)PYRROLIDINE-1-CARBOXAMIDE], the “time to maximum upadacitinib concentration (Tmax)” value in series [2] was “approximately 3 hours”. For the same molecule, the half-life in the series “clinical” was around 2 h. Besides, the solubility result in series [3] is on record as “good solubility at low pH”.
